Assay results reported in patent publication US12404255B2, “Compound and pharmaceutical composition containing same for treating or preventing neural damage, neural disease, or developmental disorder through promoting proliferation, differentiation, and/or regeneration of neural cells” (ETNOVA THERAPEUTICS CORP., priority 2020, dated 2025).

Key:
SH-SY5Y [1] = assay: Cell proliferation effect using immunofluorescence staining (Ki-67 positive cells); assay type: cell-based, human; conditions: 1st day of exposure
Description: The number of cells which were positive relative to Ki-67 as a marker for neuronal proliferation was analyzed. The number of the positive cells was automatically obtained using the ImageJ program. Ki-67 positive cells (%)=(ki-67 positive cell number/DAPI positive cell number)×100 [Calculation equation of Ki-67 positive cell number]
The calculated values were graphed using the GraphPad Prism application. […] The statistical significance of the obtained values was identified via one-way ANOVA with Dunnett's multiple comparison test. *p<0.5, **p<0.1, ***p<0.01 vs. control, #p<0.5, ##p<0.1 vs. DO3A, †p<0.5, †††p<0.01 vs. ATRA indicate presence of statistical significance.

SH-SY5Y [2] = assay: Changes in morphology of nerve cells (inverted microscope); assay type: cell-based, human; parameters: neurite elongation / change in cell morphology: dose or concentration left out as unconfirmed; conditions: microscope image
Description: For cell viability analysis, stabilized cells were planted in a 60 mm dish at a density of ×10^5 cells/dish. […] The next day, the growth medium was removed therefrom. […] Then, the cells were incubated therein for 1, 3, and 5 days, and under at 37° C. and 5% CO2 condition. Cell morphology was imaged with a Nikon inverted microscope (Nikon, ECLIPSE Ts2, Nikon Corporation, Tokyo, Japan).

SH-SY5Y [3] = assay: Neurite elongation promoting effect using immunofluorescence staining; assay type: cell-based, human; conditions: 10 μM
Text: (§1) The calculated values were graphed using the GraphPad Prism application.

SH-SY5Y [4] = conditions: human, 24 h, 200 μM
Text: as §1

[5] = Solubility test in deionized water; assay type: physicochemical
Description: In order to check the solubility of the compound according to the present disclosure, each of MMB-11903B according to the present disclosure prepared in the Preparation Example and ATRA was added to 1 mL of deionized water at a concentration of 100 mM (Compound MMB-11903B according to the present disclosure: 72.8 mg/mL; ATRA: 30.0 mg/mL) and each mixed solution was stirred for dissolution by lightly vortexing the same. After each of the prepared solution of the compound MMB-11903B according to the present disclosure and the prepared ATRA solution was left at room temperature for 20 minutes, an image thereof was taken again to observe a dissolution state of each compound in each solution (FIG. 1).
Thus, the compound MMB-11903B according to the present disclosure may be easily dissolved in the solvent such as water, so that it has high solubility, and further has solubility stability, so that it may maintain a dissolved state even after being left for a long time.

[6] = tested on: human neuroblastoma SH-SY5Y; assay: Cell viability test using CCK-8; assay type: cell-based; conditions: CCK-8, 0-50 μM, 24, 48, 72 hours
Description: Cell viability analysis of a nerve cell line using CCK-8 was performed on human neuroblastoma SH-SY5Y as an undifferentiated nerve cell line. For reference, the analysis using the CCK-8 (Cell counting kit-8) was based on a highly water-soluble tetrazolium salt-SST-8. The analysis is based on the fact that when [2-(2-methoxy-4-nitrophenyl)-3-(4-nitrophenyl)(2,4-disulfophenyl)-2H-tetrazolium, monosodium salt] is reduced under presence of an electron mediator, a water-soluble formazan orange dye is produced, and an amount of the formazan dye produced by dehydrogenase in cells is directly proportional to the number of living cells. The specific experimental method is as follows.
The next day, the growth medium was removed therefrom. […] At 2 hours before a harvest time, 10 μL of CCK-8 solution was added to each well and the cells were incubated for an additional 2 hours. […] Cell viability (%)=B/A×100(%) [Cell viability calculation equation]
(In the equation, A denotes an absorbance value measured in a control well, and B denotes an absorbance value measured in the well containing the drug).

SH-SY5Y [7] = assay: Neurite elongation and new neuron generation and growth using immunofluorescence staining (color histogram); assay type: cell-based, human; conditions: 10 μM, day 3
Description: For cell viability analysis, stabilized cells were planted in a 60 mm dish at a density of ×10^5 cells/dish. […] The next day, the growth medium was removed therefrom. […] Then, the cells were incubated therein for 1, 3, and 5 days, and under at 37° C. and 5% C02 condition. The cells were harvested and were washed with DPBS, and fixed with 10% Neutral Buffered Formalin for 10 minutes, washed 3 times with Tris-buffered saline (TBS), and then a reaction thereof was carried out for 15 minutes in 0.3% Triton X-100 (in TBS). The cells were washed three times in TBS, and a solution of 5% Bovine serum albumin (BSA) and Normal Goat Serum (NGS) in TBS was added thereto and a reaction thereof was carried out at 4° C. for 24 hours. Differentiation into the nerve cells and formation of the neurite were identified using j-III tubulin primary antibody as a neuron specific marker and doublecortin primary antibody as a newborn immature neuron marker. […] The cells were washed three times with TBS, and were mounted (VECTASHIELD® Mounting Medium with DAPI; Vector Laboratories, Burlingame, CA, USA), and images were acquired with a fluorescence microscope. […]
The color histogram was measured using the ImageJ program.

Structure (SMILES)	cell proliferation (Ki-67 positive cells) versus control (SH-SY5Y [1])	neurite elongation / change in cell morphology (SH-SY5Y [2]; 1, 3, and 5 days)	apoptosis due to cytotoxicity (SH-SY5Y [2]; 5-20 μM, 1-5 days)	neurite length versus control (SH-SY5Y [3]; ImageJ measurement after fluorescent staining)	neurite elongation in fluorescence image (SH-SY5Y [3]; 1, 3, and 5 days, tubulin and doublecortin staining)	cytotoxicity (SH-SY5Y [4])	dissolution state immediately after dissolution ([5]; 100 mM in 1 mL deionized water, light vortexing, initial state)	dissolution state after being left ([5]; 100 mM in deionized water, left at room temperature for 20 minutes)	cell viability, dependence on concentration and time [6]	expression level of new neurons (color histogram) (SH-SY5Y [7])
O=C(O)CN1CCNCCN(CC(=O)O)CCN(CC(=O)O)CC1 [DO3A]	approximately two times larger than the control	neurite elongation was not observed	observed at 10 μM, 5 days and at 20 μM, and 3 days	did not achieve the neurite elongation as in the control	neurite elongation was not observed					
CC1=C(/C=C/C(C)=C/C=C/C(C)=C/C(=O)O)C(C)(C)CCC1 [ATRA, all-trans retinoic acid]	did not exhibit a significant difference from that of the control					approximately 55%	uniformly dissolved in the solution initially	separated from the solvent and was precipitated over time	the higher the concentration of ATRA and the longer the time, the lower the cell viability	low expression level of new neurons
